Assay results reported in the supplement of paper PMC10307832.

How the values were obtained:
Test in all cases: relative viability (nuclei count vs DMSO), 5 days (fraction); higher = more cells survive
JZL-184 + Palbociclib = compound: C1CN(CCC1C(C2=CC3=C(C=C2)OCO3)(C4=CC5=C(C=C4)OCO5)O)C(=O)OC6=CC=C(C=C6)[N+](=O)[O-] [JZL-184] + CC(=O)c1c(C)c2cnc(Nc3ccc(N4CCNCC4)cn3)nc2n(C2CCCC2)c1=O [Palbociclib] (partner 0.5 µM)
Summary of the method: (§1)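 Nuclei were stained with Hoechst during a one-step fixation (final 0.05% Triton X-100, 1% formaldehyde, 1 ug/ml Hoechst) carried out 5 days after dosing, then counted on 4× images. The cells, lung cancer lines in 1536-well plates, had been dosed by pin tool the day after seeding with one drug alone or a fixed anchor-drug dose plus five library-drug doses (not always all listed) in √10 steps. Relative viability is the nuclei count in treated wells divided by that in vehicle wells, and each value is the median of duplicate plates.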

JZL-184 + Luminespib = compound: C1CN(CCC1C(C2=CC3=C(C=C2)OCO3)(C4=CC5=C(C=C4)OCO5)O)C(=O)OC6=CC=C(C=C6)[N+](=O)[O-] [JZL-184] + CCNC(=O)c1noc(-c2cc(C(C)C)c(O)cc2O)c1-c1ccc(CN2CCOCC2)cc1 [Luminespib] (partner 0.01 µM)
Summary of the method: as §1

JZL-184 + Linsitinib = compound: C1CN(CCC1C(C2=CC3=C(C=C2)OCO3)(C4=CC5=C(C=C4)OCO5)O)C(=O)OC6=CC=C(C=C6)[N+](=O)[O-] [JZL-184] + C[C@]1(O)C[C@@H](c2nc(-c3ccc4ccc(-c5ccccc5)nc4c3)c3c(N)nccn32)C1 [Linsitinib] (partner 1 µM)
Summary of the method: as §1

JZL-184 + AZD7762 = compound: C1CN(CCC1C(C2=CC3=C(C=C2)OCO3)(C4=CC5=C(C=C4)OCO5)O)C(=O)OC6=CC=C(C=C6)[N+](=O)[O-] [JZL-184] + NC(=O)Nc1cc(-c2cccc(F)c2)sc1C(=O)N[C@H]1CCCNC1 [AZD7762] (partner 0.2 µM)
Summary of the method: as §1

JZL-184 + Olaparib = compound: C1CN(CCC1C(C2=CC3=C(C=C2)OCO3)(C4=CC5=C(C=C4)OCO5)O)C(=O)OC6=CC=C(C=C6)[N+](=O)[O-] [JZL-184] + O=C(c1cc(Cc2n[nH]c(=O)c3ccccc23)ccc1F)N1CCN(C(=O)C2CC2)CC1 [Olaparib] (partner 8 µM)
Summary of the method: as §1

| Cell Line | relative viability (JZL-184 + Palbociclib; first compound 0.04 µM) | relative viability (JZL-184 + Palbociclib; first compound 0.4 µM) | relative viability (JZL-184 + Palbociclib; first compound 1.265 µM) | relative viability (JZL-184 + Palbociclib; first compound 4 µM) | relative viability (JZL-184 + Luminespib; first compound 0.04 µM) | relative viability (JZL-184 + Luminespib; first compound 0.4 µM) | relative viability (JZL-184 + Luminespib; first compound 1.265 µM) | relative viability (JZL-184 + Luminespib; first compound 4 µM) | relative viability (JZL-184 + Linsitinib; first compound 0.04 µM) | relative viability (JZL-184 + Linsitinib; first compound 0.4 µM) | relative viability (JZL-184 + Linsitinib; first compound 1.265 µM) | relative viability (JZL-184 + Linsitinib; first compound 4 µM) | relative viability (JZL-184 + AZD7762; first compound 0.04 µM) | relative viability (JZL-184 + AZD7762; first compound 0.4 µM) | relative viability (JZL-184 + AZD7762; first compound 1.265 µM) | relative viability (JZL-184 + AZD7762; first compound 4 µM) | relative viability (JZL-184 + Olaparib; first compound 0.04 µM) | relative viability (JZL-184 + Olaparib; first compound 0.4 µM) | relative viability (JZL-184 + Olaparib; first compound 1.265 µM) | relative viability (JZL-184 + Olaparib; first compound 4 µM) |
| --- | --- | --- | --- | --- | --- | --- | --- | --- | --- | --- | --- | --- | --- | --- | --- | --- | --- | --- | --- | --- |
| HCC-15 | 0.732 | 0.77 | 0.71 | 0.698 | 0.421 | 0.294 | 0.343 | 0.339 | 0.939 | 0.889 | 1 | 0.781 | 1 | 1.21 | 1.3 | 1.14 | 0.725 | 0.685 | 0.771 | 0.736 |
| HCC-44 | 0.965 | 0.967 | 1.03 | 0.981 | 1.59 | 0.973 | 1.09 | 1.09 | 0.619 | 0.631 | 0.728 | 0.636 | 1.14 | 1.01 | 1.03 | 0.987 | 1.04 | 0.98 | 0.97 | 0.928 |
| HCC-827 | 0.52 | 0.441 | 0.555 | 0.48 | 0.804 | 0.587 | 0.91 | 0.671 | 0.988 | 0.976 | 0.949 | 0.89 | 0.147 | 0.182 | 0.19 | 0.206 | 0.556 | 0.607 | 0.718 | 0.627 |
| HOP-62 | 0.481 | 0.374 | 0.453 | 0.455 | 1.03 | 0.968 | 0.902 | 0.957 | 1.09 | 1.13 | 0.992 | 0.784 | 0.617 | 0.53 | 0.754 | 0.417 | 0.49 | 0.328 | 0.529 | 0.507 |
| LC-2-ad | 0.579 | 0.504 | 0.488 | 0.484 | 1.27 | 0.891 | 1.11 | 1.03 | 0.857 | 0.698 | 0.839 | 0.829 | 0.909 | 0.8 | 0.853 | 0.829 | 0.79 | 0.682 | 0.696 | 0.686 |
| LCLC-97TM1 | 0.283 | 0.195 | 0.255 | 0.274 | 0.812 | 0.66 | 0.828 | 0.653 | 0.183 | – | 0.208 | 0.198 | 0.281 | 0.134 | 0.244 | 0.303 | 0.437 | 0.374 | 0.371 | 0.385 |
| LCLC-103H | 0.438 | 0.213 | 0.502 | 0.511 | 1.04 | 0.829 | 0.835 | 0.866 | 1.06 | 1.16 | 1 | 1.05 | 0.791 | 0.764 | 0.833 | 0.754 | 0.829 | 0.767 | 0.765 | 0.763 |
| LK-2 | 0.817 | 0.514 | 0.795 | 0.887 | 0.217 | 0.194 | 0.203 | 0.17 | 0.733 | 0.559 | 0.662 | 0.583 | 0.438 | 0.501 | 0.422 | 0.411 | 0.777 | 0.661 | 0.939 | 0.835 |
| LOU-NH91 | 0.524 | 0.509 | 0.558 | 0.448 | 0.26 | 0.322 | 0.32 | 0.387 | 1 | 0.924 | 1.02 | 0.968 | 0.785 | 0.754 | 0.81 | 0.733 | 1 | 0.902 | 0.957 | 0.889 |
| LU99A | 0.455 | 0.36 | 0.471 | 0.42 | 0.279 | 0.224 | 0.283 | 0.321 | 0.582 | 0.511 | 0.529 | 0.442 | 0.364 | 0.363 | 0.346 | 0.328 | 0.256 | 0.277 | 0.254 | 0.225 |
| LXF-289 | 0.693 | 0.564 | 0.572 | 0.595 | 0.917 | 0.57 | 0.693 | 0.618 | 1.05 | 0.94 | 0.971 | 0.924 | 1.07 | 1.08 | 1.1 | 1.06 | 1.16 | 1.06 | 1.01 | 0.975 |
| NCI-H23 | 0.594 | – | 0.484 | 0.486 | 0.21 | – | 0.194 | 0.21 | 0.552 | 0.56 | 0.651 | 0.728 | 0.203 | – | 0.25 | 0.283 | 0.388 | – | 0.303 | 0.366 |
| NCI-H322M | 0.483 | 0.449 | 0.509 | 0.451 | 0.91 | 0.797 | 0.889 | 0.705 | 0.823 | 0.938 | 0.984 | 0.907 | 0.549 | 0.523 | 0.629 | 0.521 | 0.785 | 0.591 | 0.774 | 0.733 |
| NCI-H358 | 0.138 | 0.142 | 0.137 | 0.129 | 0.387 | 0.279 | 0.308 | 0.304 | 0.889 | 0.738 | 0.848 | 0.708 | 0.585 | 0.639 | 0.569 | 0.51 | 0.804 | 0.637 | 0.599 | 0.592 |
| NCI-H441 | 0.207 | 0.229 | 0.238 | 0.236 | 0.442 | 0.325 | 0.365 | 0.347 | 0.534 | 0.401 | 0.672 | 0.606 | 1.44 | 1.23 | 1 | 1.02 | 0.714 | 0.473 | 0.659 | 0.463 |
